Data: patent publication US6479466B1, “Compositions for treating viral infections, and methods therefor” (University of Maryland, priority 1999, dated 2002)

Tested on: clinical isolates of HIV-1 (EJC-1 to EJC-4)
Assay: p24 antigen production in activated PBMCs infected with clinical isolates
Type: cell-based
Description: For infection studies involving PBMCs, cells were stimulated with 2.5 or 10 μg/ml phytohemagglutinin (PHA; Boehringer Mannheim, Indianapolis, Ind.) for 3 days. Stimulated PBMCs were infected by incubation with virus at a multiplicity of infection of 1000 TCID50/10^6 PBMC for 2 hours. PBMCs were then washed three times with PBS and cultured in 5% CO2 at 37° C., in RPMI/10% FBS supplemented with 10 units/ml IL-2 (Boehringer Mannheim) and drugs as appropriate. PBMCs were seeded in 96-well flat-bottom plates at a density of 2×10^5 PBMCs/200 μl. Following 3 days of culture half of the medium was replaced with fresh medium containing IL-2 and drugs. After 7 days of culture, HIV-1 p24 antigen production in the culture supernatant was assayed by ELISA (Coulter, Hialeah, Fla.). The concentration of nucleoside analog, alone and in combination with resveratrol, that reduced the p24 antigen value of the untreated control by 90% (IC90) was calculated by using nonparametric regression analysis. The analysis used the median-effect equation, Fa=1/[1+(Dm/D)]^m, where D is the dose, Fa is the fraction affected, and Dm is the dose required to produce the median effect.
The increase of ddI-antiviral activity by RV was next evaluated in a panel of clinical isolates of HIV-1. […]

SMILES: OC[C@@H]1CC[C@H](n2cnc3c(O)ncnc32)O1 [ddI, 2′,3′-dideoxyinosine]
- enhancement of antiviral activity of ddI (1 μM ddI plus 5 μM RV, depending on the clinical isolate): 18-185 fold
- enhancement of ddI activity (1 μM ddI plus 10 μM RV): 88-1200 fold
